US8569039B2, “Ethanol resistance Saccharomyces cerevisiae GP-01 by protoplast fusion, method for manufacturing thereof, method for manufacturing yeast containing high content of bio organic germanium by using Saccharomyces cerevisiae GP-01 and high water soluble sodium metagermanate as a germanium source” (Geranti Pharm Ltd., priority 2008, dated 2013)
Like-named read-outs stand apart in the source and are kept apart here.

Assays:
[1] = 25° C.; cited from earlier work
[2] = test system: yeast GP-01 (KCTC11399BP); experiment: Bio-germanium content inoculated into the yeast by content of germanium in the solution; assay type: cell-based, Saccharomyces Cerevisiae; conditions: for Bio-germanium content inoculated into the yeast: 20 hours, pH 10, 40° C.
Procedure: The broth medium containing the mutated Saccharomyces Cerevisiae, yeast GP-01 (KCTC11399BP), was centrifuged to collect the palletized yeast. The collected pelletized yeast was added in each of the solutions of sodium metagermanate (Na2GeO3) with different concentrations of germanium. The prepared solutions were cultivated for 20 hours at pH 10 and temperature 40° C.
In order to determine the content of bio-germanium in the yeast GP-01, 1 g of the cultivated and dried yeast GP-01 was added in 30 ml of nitric acid. The obtained sample was heated to be decomposed. After adjusting pH value to 6, 1 ml of the sample was mixed with 1 ml of phenylfluorone and 1 ml of cyclo nucleic acid. The obtained sample was stationary for 30 hours at 30° C. and then determined the content of germanium in the yeast GP-01 by using UV spectrophotometer at 525 nm. […]

[3] = test system: yeast GP-01 (KCTC 11399BP); experiment: Bio-germanium content in yeast by mixing ratio of yeast and Ge solution; assay type: cell-based, Saccharomyces Cerevisiae; conditions: 20 hours, pH 10, 40° C.
Procedure: In order to determine the content of bio-germanium in the yeast GP-01, 1 g of the cultivated and dried yeast GP-01 was added in 30 ml of nitric acid. The obtained sample was heated to be decomposed. After adjusting pH value to 6, 1 ml of the sample was mixed with 1 ml of phenylfluorone and 1 ml of cyclo nucleic acid. The obtained sample was stationary for 30 hours at 30° C. and then determined the content of germanium in the yeast GP-01 by using UV spectrophotometer at 525 nm.
The broth containing the ethanol-resistant yeast GP-01 as prepared in the Example 1 was centrifuged to collect the yeast. […] The obtained solutions were cultivated for 20 hours at pH 10 and temperature 40° C.
Also, as a control, the same procedure described in Example 3 was performed, except that a solution of (inorganic) germanium dioxide (GeO2) was used instead of sodium metagermanate (Na2GeO3).
The contents of germanium in the yeast GP-01 (KCTC 11399BP) was measured by the same method as Example 2.

[4] = test system: Saccharomyces Cerevisiae (KCTC 7904); experiment: Bio-germanium content inoculated into the yeast by content of germanium in the solution; assay type: cell-based; conditions: KCTC7904; for Bio-germanium content inoculated into the yeast: 20 hours, pH 10, 40° C.
[5] = test system: Saccharomyces Cerevisiae (KCTC 7904); conditions: KCTC7904
Procedure: (§1) In order to examine the ethanol resistance of the obtained yeast GP-01, the ethanol, which is the inhibitor of the growth, was added by the concentrations and the status of the growth of the yeast was checked.

[6] = test system: yeast GP-01 (KCTC 11399BP)
Procedure: as §1

[7] = germanium in the solution 1,000 ppm
[8] = germanium in the solution 2,000 ppm
[9] = germanium in the solution 3,000 ppm
[10] = germanium in the solution 4,000 ppm
[11] = germanium in the solution 5,000 ppm

**Q.** Which results are given for “germanium dioxide [GeO2 solution, reference compound]”?
**A.** solubility [1]: 5200 µg/mL; Yield (%) of germanium inoculated [2, 7]: 87%; Bio-germanium content inoculated into the yeast [2, 7]: 870 ppm; Yield (%) of germanium inoculated [2, 8]: 89%; Bio-germanium content inoculated into the yeast [2, 8]: 1,786 ppm; Yield (%) of germanium inoculated [2, 9]: 89%; Bio-germanium content inoculated into the yeast [2, 9]: 2,670 ppm; Yield (%) of germanium inoculated [2, 10]: 96%; Bio-germanium content inoculated into the yeast [2, 10]: 3,850 ppm; Yield (%) of germanium inoculated [2, 11]: 95%; Bio-germanium content inoculated into the yeast [2, 11]: 4,753 ppm; Bio-germanium content in yeast GP-01 ([3]; mixing ratio yeast GP-01:Ge solution 1:0.2): 1,920 ppm; Bio-germanium content in yeast GP-01 ([3]; mixing ratio yeast GP-01:Ge solution 1:0.5): 5,670 ppm; Bio-germanium content in yeast GP-01 ([3]; mixing ratio yeast GP-01:Ge solution 1:1): 4,780 ppm; Bio-germanium content in yeast GP-01 ([3]; mixing ratio yeast GP-01:Ge solution 1:2): 2,500 ppm; Bio-germanium content in yeast GP-01 ([3]; mixing ratio yeast GP-01:Ge solution 1:3): 1,700 ppm; Yield (%) of germanium inoculated [4, 7]: 78%; Bio-germanium content inoculated into the yeast [4, 7]: 780 ppm; Yield (%) of germanium inoculated [4, 8]: 44%; Bio-germanium content inoculated into the yeast [4, 8]: 870 ppm; Yield (%) of germanium inoculated [4, 9]: 33%; Bio-germanium content inoculated into the yeast [4, 9]: 980 ppm; Yield (%) of germanium inoculated [4, 10]: 36%; Bio-germanium content inoculated into the yeast [4, 10]: 1,430 ppm; Yield (%) of germanium inoculated [4, 11]: 30%; Bio-germanium content inoculated into the yeast [4, 11]: 1,500 ppm

**Q.** Which “Growth status OD(660 nm, 1/20)” value ([5]; ethanol 6.0 % v/v) does the source give for `CCO` [ethanol] here?
**A.** The value was 0.07.

**Q.** What about the “Growth status OD(660 nm, 1/20)” value ([5]; ethanol 8.0 % v/v) of the same compound?
**A.** The value was 0.06.

**Q.** What about the “Growth status OD(660 nm, 1/20)” value ([5]; ethanol 10.0 % v/v) of the same compound?
**A.** The value was 0.05.

**Q.** And the “Growth status OD(660 nm, 1/20)” value ([6]; GP-01 1st investigation, ethanol 6.0 % v/v)?
**A.** The value was 0.15.

**Q.** What about the “Growth status OD(660 nm, 1/20)” value ([6]; GP-01 1st investigation, ethanol 8.0 % v/v) of the same compound?
**A.** The value was 0.14.

**Q.** And the “Growth status OD(660 nm, 1/20)” value ([6]; GP-01 1st investigation, ethanol 10.0 % v/v)?
**A.** Its value is 0.16.

**Q.** What about the “Growth status OD(660 nm, 1/20)” value ([6]; GP-01 1st investigation, ethanol 15.0 % v/v) of the same compound?
**A.** The value was 0.12.

**Q.** And the “Growth status OD(660 nm, 1/20)” value ([6]; GP-01 2nd investigation, ethanol 6.0 % v/v)?
**A.** The value was 0.14.

**Q.** And the “Growth status OD(660 nm, 1/20)” value ([6]; GP-01 2nd investigation, ethanol 8.0 % v/v)?
**A.** Its value is 0.20.

**Q.** What about the “Growth status OD(660 nm, 1/20)” value ([6]; GP-01 2nd investigation, ethanol 10.0 % v/v) of the same compound?
**A.** The value was 0.19.

**Q.** And the “Growth status OD(660 nm, 1/20)” value ([6]; GP-01 2nd investigation, ethanol 15.0 % v/v)?
**A.** Its value is 0.08.

**Q.** What about the “Growth status OD(660 nm, 1/20)” value ([6]; GP-01 3rd investigation, ethanol 6.0 % v/v) of the same compound?
**A.** Its value is 0.20.

**Q.** What about the “Growth status OD(660 nm, 1/20)” value ([6]; GP-01 3rd investigation, ethanol 8.0 % v/v) of the same compound?
**A.** Its value is 0.23.

**Q.** And the “Growth status OD(660 nm, 1/20)” value ([6]; GP-01 3rd investigation, ethanol 10.0 % v/v)?
**A.** Its value is 0.24.

**Q.** What about the “Growth status OD(660 nm, 1/20)” value ([6]; GP-01 3rd investigation, ethanol 15.0 % v/v) of the same compound?
**A.** Its value is 0.15.
